From article PMC3081360 (Journal of medicinal chemistry, 2011)

Target: brain NOP receptors (hypothalamus vs striatum) (Rattus norvegicus, UniProt P35370)
Assay: Ligand brain uptake in rat, ex vivo LC-MS/MS
Settings: 3 μg/kg i.v., non-anesthetized, 10 min stated for (S)-10a

brain NOP receptors (hypothalamus vs striatum), sequence (P35370 whole entry): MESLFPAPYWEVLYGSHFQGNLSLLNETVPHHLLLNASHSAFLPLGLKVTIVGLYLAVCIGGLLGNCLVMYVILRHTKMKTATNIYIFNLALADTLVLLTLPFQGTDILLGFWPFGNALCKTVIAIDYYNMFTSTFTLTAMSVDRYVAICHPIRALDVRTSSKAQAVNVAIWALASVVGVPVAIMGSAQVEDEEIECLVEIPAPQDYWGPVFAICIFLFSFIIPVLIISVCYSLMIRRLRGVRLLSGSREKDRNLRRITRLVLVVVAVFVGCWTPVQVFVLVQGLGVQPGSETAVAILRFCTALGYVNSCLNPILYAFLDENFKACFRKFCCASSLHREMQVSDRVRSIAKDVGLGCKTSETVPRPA

Row | Compound | brain uptake
1 | CC(C)N(C)C(=O)[C@@H](Cc1ccccc1F)CN1CCC2(CC1)OCCc1cc(F)sc12 [(S)-10a, (2S)-2-[(2-Fluorophenyl)methyl]-3-(2-fluorospiro[4,5-dihydrothieno[2,3-c]pyran-7,4'-piperidine]-1'-yl)-N-isopropyl-N-methyl-propanamide] | 453 % SUV
2 | CNC(=O)[C@@H](Cc1ccccc1Cl)CN1CCC2(CC1)OCCc1cc(F)sc12 [(S)-10b, (2S)-2-[(2-Chlorophenyl)methyl]-3-(2-fluorospiro[4,5-dihydrothieno[2,3-c]pyran-7,4'-piperidine]-1'-yl)-N-methyl-propanamide] | ~ 280 % SUV
3 | CNC(=O)[C@@H](Cc1ccccc1F)CN1CCC2(CC1)OCCc1cc(F)sc12 [(S)-10c, (2S)-2-[(2-Fluorophenyl)methyl]-3-(2-fluorospiro[4,5-dihydrothieno[2,3-c]pyran-7,4'-piperidine]-1'-yl)-N-methyl-propanamide] | ~ 280 % SUV
